Data published in patent publication US8003660B2, “Modulators of muscarinic receptors” (Vertex Pharmaceuticals Incorporated, priority 2006, dated 2011).

Key:
Assay type in all cases: cell-based
[1] = target: T1, M1 muscarinic receptor (Homo sapiens, UniProt P11229); experiment: Functional mobilization of intracellular calcium (FLIPR) in CHO cells expressing M1; conditions: for EC50: CHO cells expressing M1, FLIPR calcium; for Emax: CHO, read-out: M1 Efficacy
T1 construct: expressed in transfected cells; host or cells: CHO (M1-CHO)
T1 sequence (P11229 1-460): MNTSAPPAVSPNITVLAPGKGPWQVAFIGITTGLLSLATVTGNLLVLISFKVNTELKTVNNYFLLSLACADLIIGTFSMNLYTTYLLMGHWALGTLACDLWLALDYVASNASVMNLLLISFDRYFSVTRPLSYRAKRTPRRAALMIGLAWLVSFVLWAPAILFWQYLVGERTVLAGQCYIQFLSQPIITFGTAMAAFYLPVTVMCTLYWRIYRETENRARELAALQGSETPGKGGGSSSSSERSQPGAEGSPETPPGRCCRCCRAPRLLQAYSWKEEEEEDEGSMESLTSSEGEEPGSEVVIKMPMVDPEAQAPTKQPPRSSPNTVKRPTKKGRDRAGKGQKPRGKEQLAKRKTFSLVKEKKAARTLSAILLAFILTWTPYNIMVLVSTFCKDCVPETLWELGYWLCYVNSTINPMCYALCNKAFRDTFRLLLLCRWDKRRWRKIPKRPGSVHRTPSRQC
In short: (§1)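 Recombinant CHO cells loaded with Fluo-3 AM or Calcium 3 dye in pH 7.4 buffer containing 1 mM probenecid, with 0.5% final DMSO. For agonism, compound is added directly. For inhibition, it is preincubated 15 min, or co-applied, before carbachol at EC80. FLIPR fluorescence (ex 488, em 540 nm) is recorded for 60 s.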

[2] = target: T2, M2 muscarinic receptor (Homo sapiens, UniProt P08172); experiment: Functional mobilization of intracellular calcium (FLIPR) in CHO cells expressing M2; conditions: for EC50: CHO cells expressing M2, FLIPR calcium; for Emax: CHO, read-out: M2 Efficacy
T2 construct: expressed in transfected cells; host or cells: CHO (M2-CHO)
T2 sequence (P08172 1-466): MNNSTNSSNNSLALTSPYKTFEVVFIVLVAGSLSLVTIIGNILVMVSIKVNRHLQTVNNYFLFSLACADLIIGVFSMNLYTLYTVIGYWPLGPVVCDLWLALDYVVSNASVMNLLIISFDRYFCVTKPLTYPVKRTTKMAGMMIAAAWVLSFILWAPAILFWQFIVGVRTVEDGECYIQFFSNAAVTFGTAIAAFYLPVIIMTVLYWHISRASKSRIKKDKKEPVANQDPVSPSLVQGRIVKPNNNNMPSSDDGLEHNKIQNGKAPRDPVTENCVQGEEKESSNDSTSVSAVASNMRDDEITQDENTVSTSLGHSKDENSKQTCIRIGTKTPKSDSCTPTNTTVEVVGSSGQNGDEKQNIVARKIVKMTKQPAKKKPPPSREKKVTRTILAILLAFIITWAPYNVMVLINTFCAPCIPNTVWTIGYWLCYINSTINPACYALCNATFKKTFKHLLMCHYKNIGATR
In short: as §1

[3] = target: T3, M3 muscarinic receptor (Homo sapiens, UniProt P20309); experiment: Functional mobilization of intracellular calcium (FLIPR) in CHO cells expressing M3; conditions: for EC50: CHO cells expressing M3, FLIPR calcium; for Emax: CHO, read-out: M3 Efficacy
T3 construct: expressed in transfected cells; host or cells: CHO (M3-CHO)
T3 sequence (P20309 whole entry): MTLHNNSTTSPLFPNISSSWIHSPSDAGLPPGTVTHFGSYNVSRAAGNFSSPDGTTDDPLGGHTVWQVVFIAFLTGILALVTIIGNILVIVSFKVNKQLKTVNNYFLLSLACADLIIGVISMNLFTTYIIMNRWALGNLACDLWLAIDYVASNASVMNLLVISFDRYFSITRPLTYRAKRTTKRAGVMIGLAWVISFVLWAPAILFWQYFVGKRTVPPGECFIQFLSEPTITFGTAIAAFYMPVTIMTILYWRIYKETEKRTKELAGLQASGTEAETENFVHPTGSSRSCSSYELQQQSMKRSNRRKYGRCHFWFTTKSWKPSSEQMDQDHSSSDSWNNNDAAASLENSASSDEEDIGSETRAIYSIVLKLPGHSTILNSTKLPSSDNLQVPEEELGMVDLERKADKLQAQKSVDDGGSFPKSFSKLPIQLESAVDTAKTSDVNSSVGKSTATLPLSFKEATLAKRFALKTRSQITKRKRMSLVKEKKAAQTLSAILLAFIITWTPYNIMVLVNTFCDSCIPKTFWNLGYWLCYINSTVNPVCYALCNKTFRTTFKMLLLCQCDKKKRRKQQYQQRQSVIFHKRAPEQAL
In short: as §1

[4] = target: T4, M4 muscarinic receptor (Homo sapiens, UniProt P08173); experiment: Functional mobilization of intracellular calcium (FLIPR) in CHO cells expressing M4; conditions: for EC50: CHO cells expressing M4, FLIPR calcium; for Emax: CHO, read-out: M4 Efficacy
T4 construct: expressed in transfected cells; host or cells: CHO (M4-CHO)
T4 sequence (P08173 1-479): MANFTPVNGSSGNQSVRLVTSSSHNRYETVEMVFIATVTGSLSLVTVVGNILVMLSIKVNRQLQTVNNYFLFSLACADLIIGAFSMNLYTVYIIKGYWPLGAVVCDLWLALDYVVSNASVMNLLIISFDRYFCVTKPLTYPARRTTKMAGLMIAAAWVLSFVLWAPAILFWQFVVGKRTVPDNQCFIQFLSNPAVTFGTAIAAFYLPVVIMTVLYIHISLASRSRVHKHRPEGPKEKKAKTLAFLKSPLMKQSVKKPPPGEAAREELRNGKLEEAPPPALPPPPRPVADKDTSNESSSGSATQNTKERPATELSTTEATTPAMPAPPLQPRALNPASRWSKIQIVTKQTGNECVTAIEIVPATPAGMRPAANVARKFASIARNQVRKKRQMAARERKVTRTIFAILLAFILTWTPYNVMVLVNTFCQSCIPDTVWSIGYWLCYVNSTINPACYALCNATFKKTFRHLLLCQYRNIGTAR
In short: as §1

[5] = 100% = maximum response obtained with the Carbachol control

SMILES	EC50 [1] [nM]	Emax [1, 5] [%]	EC50 [2] [nM]	Emax [2, 5] [%]	EC50 [3] [nM]	Emax [3, 5] [%]	EC50 [4] [nM]	Emax [4, 5] [%]	M1 Efficacy [1, 5]	M2 Efficacy [2, 5]	M3 Efficacy [3, 5]	M4 Efficacy [4, 5]
CSC(C)CCN1CCC2(CC[C@H](NC(C)=O)c3ccccc32)CC1 (some centres unmarked) [compound 49]	2000 to 5000	25 to 100	> 5000	< 25	> 5000	< 25	< 2000	25 to 100	–	–	–	–
COC(=O)CN(C(C)=O)[C@H]1CCC2(CCN(CCC(C)(C)C)CC2)c2ccccc21 [compound 50]	> 5000	25 to 100	> 5000	< 25	> 5000	< 25	< 2000	25 to 100	–	–	–	–
CN(C)C(=O)N(C)[C@H]1CCC2(CCN(CCC(C)(C)C)CC2)c2ccccc21 [compound 51]	< 2000	25 to 100	> 5000	< 25	> 5000	< 25	< 2000	25 to 100	–	–	–	–
C[C@H](C(=O)N[C@H]1CCC2(CCN(CCC(C)(C)C)CC2)c2cc(F)ccc21)N1CCCC1=O [compound 52]	< 2000	25 to 100	< 2000	< 25	> 5000	< 25	< 2000	25 to 100	–	–	–	–
CC(CC(C)(C)C)N1CCC2(CC[C@H](NC(=O)N(C)C)c3ccccc32)CC1 (some centres unmarked) [compound 53]	> 5000	< 25	> 5000	< 25	> 5000	< 25	< 2000	25 to 100	–	–	–	–
CCN(C(=O)CCC(C)=O)[C@H]1CCC2(CCN(CCC(C)(C)C)CC2)c2ccccc21 [compound 54]	< 2000	25 to 100	> 5000	< 25	> 5000	< 25	< 2000	25 to 100	–	–	–	–
CC(C)(C)CCN1CCC2(CC[C@@H](NC(=O)C3CCCN(C(=O)C4CC4)C3)c3ccccc32)CC1 (some centres unmarked) [compound 55]	2000 to 5000	< 25	< 2000	< 25	> 5000	< 25	< 2000	25 to 100	–	–	–	–
CC[C@@H](C)CN1CCC2(CC[C@H](NC(C)=O)c3ccccc32)CC1 [compound 56]	< 2000	25 to 100	< 2000	25 to 100	> 5000	< 25	< 2000	25 to 100	–	–	–	–
CC(C)(C)CCN1CCC2(CC[C@H](N3CCCCC3=O)c3ccccc32)CC1 [compound 57]	2000 to 5000	25 to 100	> 5000	< 25	> 5000	< 25	< 2000	25 to 100	–	–	–	–
Cn1cc(C(=O)N[C@H]2CCC3(CCN(CCC(C)(C)C)CC3)c3ccccc32)cn1 [compound 58]	< 2000	25 to 100	< 2000	25 to 100	> 5000	< 25	< 2000	25 to 100	–	–	–	–
CC(=O)N1CCCC(C(=O)N[C@H]2CCC3(CCN(CCC(C)(C)C)CC3)c3cc(F)ccc32)C1 (some centres unmarked) [compound 59]	< 2000	25 to 100	2000 to 5000	< 25	> 5000	< 25	< 2000	25 to 100	–	–	–	–
CC(=O)N1CCCC1C(=O)N[C@H]1CCC2(CCN(CCC(C)(C)C)CC2)c2ccccc21 (some centres unmarked) [compound 60]	< 2000	25 to 100	> 5000	< 25	> 5000	< 25	< 2000	25 to 100	–	–	–	–
CCC(=O)N[C@@H]1CCC2(CCN(CCC(C)(C)C)CC2)c2ccccc21 [compound 62]	> 5000	< 25	> 5000	< 25	> 5000	< 25	< 2000	25 to 100	–	–	–	–
CCOCC(=O)N[C@@H]1CCC2(CCN(CCC(C)(C)C)CC2)c2cc(F)ccc21 [compound 63]	< 2000	25 to 100	< 2000	< 25	> 5000	< 25	< 2000	25 to 100	–	–	–	–
CC(=O)N[C@@H]1CCC2(CCN(CCC(C)(C)C)CC2)c2ccccc21 [compound 64]	2000 to 5000	< 25	> 5000	< 25	> 5000	< 25	< 2000	25 to 100	–	–	–	–
CC(C)(C)CCN1CCC2(CC[C@@H](NC(=O)Cc3cccnc3)c3ccc(F)cc32)CC1 [compound 65]	< 2000	25 to 100	2000 to 5000	< 25	> 5000	< 25	< 2000	25 to 100	–	–	–	–
CC(=O)N[C@H]1CCC2(CCN(CC(C)(C)C)CC2)c2ccccc21 [compound 66]	< 2000	25 to 100	> 5000	25 to 100	> 5000	< 25	< 2000	25 to 100	–	–	–	–
CC(C)(C)CCN1CCC2(CC[C@H](NC(=O)C3CC(=O)N3)c3ccc(F)cc32)CC1 (some centres unmarked) [compound 67]	< 2000	25 to 100	< 2000	25 to 100	> 5000	< 25	< 2000	25 to 100	–	–	–	–
CC(=O)N[C@H]1CCC2(CCN(CCC(C)CCC=C(C)C)CC2)c2ccccc21 (some centres unmarked) [compound 68]	< 2000	> 100	< 2000	25 to 100	> 5000	< 25	< 2000	25 to 100	–	–	–	–
CCn1cc(C(=O)N[C@H]2CCC3(CCN(CCC(C)(C)C)CC3)c3ccccc32)cn1 [compound 69]	> 5000	–	> 5000	–	> 5000	–	< 2000	–	+ (efficacy was calculated to be less than 25%)	+ (efficacy was calculated to be less than 25%)	+ (efficacy was calculated to be less than 25%)	++ (efficacy was calculated to be from 100% to 25%)
CCOCC(=O)N[C@H]1CCC2(CCN(CCC(C)(C)C)CC2)c2ccccc21 [compound 70]	< 2000	25 to 100	< 2000	< 25	> 5000	< 25	< 2000	25 to 100	–	–	–	–
CC(C)(C)CCN1CCC2(CC[C@H](NC(=O)CN3CCCCCC3=O)c3ccccc32)CC1 [compound 71]	< 2000	25 to 100	< 2000	25 to 100	> 5000	< 25	< 2000	25 to 100	–	–	–	–
